Laboratory results published in US10865216B2, “Tricyclic Gyrase inhibitors” (MERCK SHARP & DOHME CORP., priority 2012, dated 2020).
Values after ≈ are worked out from the molar mass of the structure shown.

These molecules were tested on E. coli ATCC 25922 (assay: MIC, E. coli ATCC 25922). Settings: Escherichia coli, ATCC25922, E. coli; Alamar Blue read after overnight incubation at 35° C.; read-out: MIC Ec.
Assay type: cell-based

| Compound | MIC |
| --- | --- |
| CNc1cccc2c1[nH]c1nc(Oc3cnc(C)nc3)cc(N3CC[C@@H](N)C3)c12 [Compound 3.5] | ≤ 0.5 µg/mL |
| CNc1cccc2c1[nH]c1nc(Oc3cnc(C)nc3)nc(Oc3cnc(C)nc3)c12 [Compound 8.2] | > 32 µg/mL |
| Cc1ncc(Oc2nc(N3C[C@H](NC(=O)CN)C4(CC4)C3)c3c(n2)[nH]c2c(N(C)C(=O)CN)cc(F)cc23)cn1 [Compound 4.427] | > 16 µg/mL |
| CNc1cccc2c1[nH]c1nc(Oc3cnc(C)nc3)cc(N3C[C@H](NC)C4(CC4)C3)c12 [Compound 3.49] | ≤ 0.5 µg/mL |
| CNc1cccc2c1[nH]c1nc(Oc3cncc(F)c3)cc(N3CC[C@@H](N)C3)c12 [Compound 3.6] | 1 µg/mL (≈ 2.55 µM) |
| CNc1cccc2c1[nH]c1nc(Oc3cncc(F)c3)cc(N3CC(N)C4(CC4)C3)c12 (centres unmarked) [Compound 3.50] | 2 µg/mL (≈ 4.78 µM) |
| CNc1cccc2c1[nH]c1nc(Oc3cncnc3)cc(-c3cn[nH]c3)c12 [Compound 3.9] | 32 µg/mL (≈ 89.5 µM) |
| CNc1cccc2c1[nH]c1nc(Oc3cncc(OC)c3)cc(N3CC4C(N)C4C3)c12 (centres unmarked) [Compound 3.35] | 1 µg/mL (≈ 2.4 µM) |
| CNc1cccc2c1[nH]c1nc(Sc3cnc4ccc[n+]([O-])c4c3)nc(N3CC(O)C3)c12 [Compound 1.17] | > 64 µg/mL |
| CNc1cccc2c1[nH]c1nc(Sc3cnc4nccnc4c3)nc(N3CC4C(N)C4C3)c12 (centres unmarked) [Compound 1.16] | 1 µg/mL (≈ 2.2 µM) |

Same assay, conditions: Escherichia coli, ATCC25922, Table 15; R2 is joined to R4; EC8 not defined; read-out: EC8 MIC

| Compound | MIC |
| --- | --- |
| CNc1cc(F)cc2c1[nH]c1nc3nc(c12)N[C@@H](CN)COCCCNC(=O)CSc1ncc(cn1)O3 | 8 µg/mL (≈ 15.2 µM) |

Same assay, conditions: Escherichia coli, ATCC25922, Table 16; new R4 substituents; EC8 not defined; read-out: EC8 MIC

| Compound | MIC |
| --- | --- |
| CNc1cc(F)cc2c1[nH]c1nc(Oc3cnc(C)nc3)nc(NCCN)c12 | 16 µg/mL (≈ 41.8 µM) |
| CNc1cc(F)cc2c1[nH]c1nc(Oc3cnc(C)nc3)nc(N3CCC(F)(CN)C3)c12 (centres unmarked) | ≤ 0.5 µg/mL |
| CNc1cc(F)cc2c1[nH]c1nc(Oc3cnc(C)nc3)nc(N3CCC(C4CNC4)C3)c12 (centres unmarked) | 8 µg/mL (≈ 17.8 µM) |

Same assay, conditions: Table 11; L = CH2; EC8 not defined

| Compound | EC8 MIC |
| --- | --- |
| CNc1cc(F)cc2c1[nH]c1nc(Cc3cnn(C)c3)nc(N3C[C@H]4C[C@@H]3C[C@H]4N)c12 [drawing 1734] | 8 µg/mL |
| CNc1cc(F)cc2c1[nH]c1nc(Cc3cncnc3)nc(N3C[C@H](N)C4(CC4)C3)c12 | 1 µg/mL |

Same assay, conditions: Table 18, Ec

| Compound | MIC Ec |
| --- | --- |
| CNc1cc(F)cc2c1[nH]c1nc(Oc3cnc(C(C)O)c(F)c3)nc(N3C[C@H]4C[C@@H]3C[C@H]4N)c12 (some centres unmarked) [Compound 10.29] | ≤ 0.5 µg/mL |
| CNc1cc(Cl)cc2c1[nH]c1nc(Oc3cnc4ccnn4c3)nc(N3C[C@H]4C[C@@H]3C[C@H]4N)c12 [Compound 10.37] | ≤ 0.5 µg/mL |
| CNc1cc(F)c(F)c2c1[nH]c1nc(Oc3cnc(C)nc3)nc(N3CC[C@]4(CC[C@H]4N)C3)c12 [Compound 10.92] | ≤ 0.5 µg/mL |
| CNc1cc(F)cc2c1[nH]c1nc(Oc3cnc4cc[s+]([O-])c4c3)nc(N3C[C@H]4C[C@@H]3C[C@H]4N)c12 (some centres unmarked) [Compound 10.109] | ≤ 0.5 µg/mL |
| CNc1cc(F)cc2c1[nH]c1nc(Oc3cnc(C(C)O)nc3)nc(N3CC4(CC[C@]4(C)N)C3)c12 (some centres unmarked) [Compound 10.74] | 1 µg/mL (≈ 2.09 µM) |
| CNc1cc(F)c(C#N)c2c1[nH]c1nc(Oc3cnc(C)nc3)nc(N3C[C@H]4CCN[C@H]4C3)c12 [Compound 10.70] | ≤ 0.5 µg/mL |
| CNc1cc(F)c(C#N)c2c1[nH]c1nc(Oc3cnc(C)nc3)nc(N3C[C@H]4C[C@@H]3C[C@H]4N)c12 [Compound 10.69] | ≤ 0.5 µg/mL |
| CNc1cc(F)cc2c1[nH]c1nc(Oc3cnc4c(C)cnn4c3)nc(N3C[C@H](N)C4(CC4)C3)c12 [Compound 10.20] | ≤ 0.5 µg/mL |
| CNc1cc(F)cc2c1[nH]c1nc(Oc3cnc4scnc4c3)nc(N3C[C@H]4C[C@@H]3C[C@H]4N)c12 [Compound 10.34] | ≤ 0.5 µg/mL |
| CNc1cc(F)c(C#N)c2c1[nH]c1nc(Oc3cnc(C)nc3)nc(N3CC4(CC[C@H]4N)C3)c12 [Compound 10.71] | ≤ 0.5 µg/mL |
| CNc1cc(F)cc2c1[nH]c1nc(Oc3cnc(C)nc3)nc(N3CCC4(CC3)CC4CN)c12 (centres unmarked) [Compound 10.80] | 2 µg/mL (≈ 4.32 µM) |
| CNc1cc(F)cc2c1[nH]c1nc(Oc3cnc4c(C)cnn4c3)nc(N3CC4C[C@@H](N)C4C3)c12 (some centres unmarked) [Compound 10.30] | ≤ 0.5 µg/mL |

The molecules below were run on S. aureus ATCC 13709 (assay: MIC, S. aureus ATCC 13709). Settings: Staphylococcus aureus, ATCC13709, S. aureus; Alamar Blue read after overnight incubation at 35° C.; read-out: MIC Sa.
Assay type: cell-based

| Compound | MIC |
| --- | --- |
| CNc1cccc2c1[nH]c1nc(Oc3cnc(C)nc3)cc(N3CC[C@@H](N)C3)c12 [Compound 3.5] | 0.25 µg/mL (≈ 0.642 µM) |
| CNc1cccc2c1[nH]c1nc(Oc3cnc(C)nc3)nc(Oc3cnc(C)nc3)c12 [Compound 8.2] | 1 µg/mL (≈ 2.41 µM) |
| Cc1ncc(Oc2nc(N3C[C@H](NC(=O)CN)C4(CC4)C3)c3c(n2)[nH]c2c(N(C)C(=O)CN)cc(F)cc23)cn1 [Compound 4.427] | > 16 µg/mL |
| CNc1cccc2c1[nH]c1nc(Oc3cnc(C)nc3)cc(N3C[C@H](NC)C4(CC4)C3)c12 [Compound 3.49] | ≤ 0.5 µg/mL |
| CNc1cccc2c1[nH]c1nc(Oc3cncc(F)c3)cc(N3CC[C@@H](N)C3)c12 [Compound 3.6] | 0.5 µg/mL (≈ 1.27 µM) |
| CNc1cccc2c1[nH]c1nc(Oc3cncc(F)c3)cc(N3CC(N)C4(CC4)C3)c12 (centres unmarked) [Compound 3.50] | ≤ 0.5 µg/mL |
| CNc1cccc2c1[nH]c1nc(Oc3cncnc3)cc(-c3cn[nH]c3)c12 [Compound 3.9] | 2 µg/mL (≈ 5.6 µM) |
| CNc1cccc2c1[nH]c1nc(Oc3cncc(OC)c3)cc(N3CC4C(N)C4C3)c12 (centres unmarked) [Compound 3.35] | ≤ 0.5 µg/mL |
| CNc1cccc2c1[nH]c1nc(Sc3cnc4ccc[n+]([O-])c4c3)nc(N3CC(O)C3)c12 [Compound 1.17] | ≤ 0.5 µg/mL |
| CNc1cccc2c1[nH]c1nc(Sc3cnc4nccnc4c3)nc(N3CC4C(N)C4C3)c12 (centres unmarked) [Compound 1.16] | ≤ 0.5 µg/mL |

Same assay, conditions: Staphylococcus aureus, ATCC13709, Table 15; R2 is joined to R4; read-out: SA MIC

| Compound | MIC |
| --- | --- |
| CNc1cc(F)cc2c1[nH]c1nc3nc(c12)N[C@@H](CN)COCCCNC(=O)CSc1ncc(cn1)O3 | 2 µg/mL (≈ 3.79 µM) |

Same assay, conditions: Staphylococcus aureus, ATCC13709, Table 16; new R4 substituents; read-out: SA MIC

| Compound | MIC |
| --- | --- |
| CNc1cc(F)cc2c1[nH]c1nc(Oc3cnc(C)nc3)nc(NCCN)c12 | 4 µg/mL (≈ 10.5 µM) |
| CNc1cc(F)cc2c1[nH]c1nc(Oc3cnc(C)nc3)nc(N3CCC(F)(CN)C3)c12 (centres unmarked) | ≤ 0.5 µg/mL |
| CNc1cc(F)cc2c1[nH]c1nc(Oc3cnc(C)nc3)nc(N3CCC(C4CNC4)C3)c12 (centres unmarked) | ≤ 0.5 µg/mL |

Same assay, conditions: Table 11; compounds wherein L = CH2

| Compound | SA MIC |
| --- | --- |
| CNc1cc(F)cc2c1[nH]c1nc(Cc3cnn(C)c3)nc(N3C[C@H]4C[C@@H]3C[C@H]4N)c12 [drawing 1734] | 1 µg/mL |
| CNc1cc(F)cc2c1[nH]c1nc(Cc3cncnc3)nc(N3C[C@H](N)C4(CC4)C3)c12 | ≤ 0.5 µg/mL |

Same assay, conditions: Table 18, Sa

| Compound | MIC Sa |
| --- | --- |
| CNc1cc(F)cc2c1[nH]c1nc(Oc3cnc(C(C)O)c(F)c3)nc(N3C[C@H]4C[C@@H]3C[C@H]4N)c12 (some centres unmarked) [Compound 10.29] | ≤ 0.5 µg/mL |
| CNc1cc(Cl)cc2c1[nH]c1nc(Oc3cnc4ccnn4c3)nc(N3C[C@H]4C[C@@H]3C[C@H]4N)c12 [Compound 10.37] | ≤ 0.5 µg/mL |
| CNc1cc(F)c(F)c2c1[nH]c1nc(Oc3cnc(C)nc3)nc(N3CC[C@]4(CC[C@H]4N)C3)c12 [Compound 10.92] | ≤ 0.5 µg/mL |
| CNc1cc(F)cc2c1[nH]c1nc(Oc3cnc4cc[s+]([O-])c4c3)nc(N3C[C@H]4C[C@@H]3C[C@H]4N)c12 (some centres unmarked) [Compound 10.109] | ≤ 0.5 µg/mL |
| CNc1cc(F)cc2c1[nH]c1nc(Oc3cnc(C(C)O)nc3)nc(N3CC4(CC[C@]4(C)N)C3)c12 (some centres unmarked) [Compound 10.74] | ≤ 0.5 µg/mL |
| CNc1cc(F)c(C#N)c2c1[nH]c1nc(Oc3cnc(C)nc3)nc(N3C[C@H]4CCN[C@H]4C3)c12 [Compound 10.70] | ≤ 0.5 µg/mL |
| CNc1cc(F)c(C#N)c2c1[nH]c1nc(Oc3cnc(C)nc3)nc(N3C[C@H]4C[C@@H]3C[C@H]4N)c12 [Compound 10.69] | ≤ 0.5 µg/mL |
| CNc1cc(F)cc2c1[nH]c1nc(Oc3cnc4c(C)cnn4c3)nc(N3C[C@H](N)C4(CC4)C3)c12 [Compound 10.20] | ≤ 0.5 µg/mL |
| CNc1cc(F)cc2c1[nH]c1nc(Oc3cnc4scnc4c3)nc(N3C[C@H]4C[C@@H]3C[C@H]4N)c12 [Compound 10.34] | ≤ 0.5 µg/mL |
| CNc1cc(F)c(C#N)c2c1[nH]c1nc(Oc3cnc(C)nc3)nc(N3CC4(CC[C@H]4N)C3)c12 [Compound 10.71] | ≤ 0.5 µg/mL |
| CNc1cc(F)cc2c1[nH]c1nc(Oc3cnc(C)nc3)nc(N3CCC4(CC3)CC4CN)c12 (centres unmarked) [Compound 10.80] | 0.06 µg/mL (≈ 0.13 µM) |
| CNc1cc(F)cc2c1[nH]c1nc(Oc3cnc4c(C)cnn4c3)nc(N3CC4C[C@@H](N)C4C3)c12 (some centres unmarked) [Compound 10.30] | ≤ 0.5 µg/mL |
